Test results as given in patent US11826373B2, “Methods for treatment of diseases” (Galera Labs, LLC, priority 2011, dated 2023).

System: healthy male and female subjects
Assay: Human Phase 1 single rising dose safety and tolerability of GC4403
Format: in vivo
Conditions: 4 subjects dosed
Protocol: In a Phase 1 randomized, double-blind, placebo-controlled single rising dose safety, tolerability and pharmacokinetics study, 54 healthy male and female subjects were dosed from 2.2 to 25 mg of GC4403 administered intravenously over 30 minutes. Disposition of GC4403 is multi-exponential and follows linear pharmacokinetics with generally proportional increases in AUC and Cmax with increasing dose over the dose ranges studied. […] GC4403 is excreted unchanged in the urine and accounts for approximately 9 to 17% of the dose administered. No significant cardiovascular or vital sign effects, no significant physical examination abnormalities, and no significant abnormalities in routine clinical laboratory assessments were observed. Facial tingling, generalized tingling, paraesthesias and facial warmth were reported in a dose responsive manner, occurring at the 16.7 and 25 mg GC4403 doses.

[Cl][Mn-5]1234([Cl])[n+]5c6cccc5C[NH+]1[C@@H]1CCCC[C@H]1[NH+]2CC[NH+]3[C@@H]1CCCC[C@H]1[NH+]4C6 (some centres unmarked) [GC4403]
1 (25) N (%): Any Event (treatment-emergent adverse event) (2.2 mg) | Conjunctivitis (treatment-emergent adverse event) (2.2 mg) | Inj. Site Reaction (treatment-emergent adverse event) (3.3 mg) | Lightheadedness (treatment-emergent adverse event) (3.3 mg) | Any Event (treatment-emergent adverse event) (4.9 mg) | Headache (treatment-emergent adverse event) (7.4 mg) | Inj. Site Pressure (treatment-emergent adverse event) (7.4 mg)
0 (0) N (%): Cough (treatment-emergent adverse event) (2.2 mg) | Discolored Urine (treatment-emergent adverse event) (2.2 mg) | Drowsiness (treatment-emergent adverse event) (2.2 mg) | Facial Warmth (treatment-emergent adverse event) (2.2 mg) | Feeling Drunk (treatment-emergent adverse event) (2.2 mg) | Headache (treatment-emergent adverse event) (2.2 mg) | Inj. Site Pressure (treatment-emergent adverse event) (2.2 mg) | Inj. Site Reaction (treatment-emergent adverse event) (2.2 mg) | Injection Site Pain (treatment-emergent adverse event) (2.2 mg) | Lightheadedness (treatment-emergent adverse event) (2.2 mg) | Paresthesia (treatment-emergent adverse event) (2.2 mg) | Skin Tightness (treatment-emergent adverse event) (2.2 mg) | Taste Perversion (treatment-emergent adverse event) (2.2 mg) | Tingling (treatment-emergent adverse event) (2.2 mg) | Tingling Mouth (treatment-emergent adverse event) (2.2 mg) | Conjunctivitis (treatment-emergent adverse event) (3.3 mg) | Cough (treatment-emergent adverse event) (3.3 mg) | Discolored Urine (treatment-emergent adverse event) (3.3 mg) | Drowsiness (treatment-emergent adverse event) (3.3 mg) | Facial Warmth (treatment-emergent adverse event) (3.3 mg) | Feeling Drunk (treatment-emergent adverse event) (3.3 mg) | Headache (treatment-emergent adverse event) (3.3 mg) | Inj. Site Pressure (treatment-emergent adverse event) (3.3 mg) | Injection Site Pain (treatment-emergent adverse event) (3.3 mg) | Paresthesia (treatment-emergent adverse event) (3.3 mg) | Skin Tightness (treatment-emergent adverse event) (3.3 mg) | Taste Perversion (treatment-emergent adverse event) (3.3 mg) | Tingling (treatment-emergent adverse event) (3.3 mg) | Tingling Mouth (treatment-emergent adverse event) (3.3 mg) | Conjunctivitis (treatment-emergent adverse event) (4.9 mg) | Cough (treatment-emergent adverse event) (4.9 mg) | Discolored Urine (treatment-emergent adverse event) (4.9 mg) | Drowsiness (treatment-emergent adverse event) (4.9 mg) | Facial Warmth (treatment-emergent adverse event) (4.9 mg) | Feeling Drunk (treatment-emergent adverse event) (4.9 mg) | Headache (treatment-emergent adverse event) (4.9 mg) | Inj. Site Pressure (treatment-emergent adverse event) (4.9 mg) | Inj. Site Reaction (treatment-emergent adverse event) (4.9 mg) | Injection Site Pain (treatment-emergent adverse event) (4.9 mg) | Lightheadedness (treatment-emergent adverse event) (4.9 mg) | Paresthesia (treatment-emergent adverse event) (4.9 mg) | Skin Tightness (treatment-emergent adverse event) (4.9 mg) | Taste Perversion (treatment-emergent adverse event) (4.9 mg) | Tingling (treatment-emergent adverse event) (4.9 mg) | Tingling Mouth (treatment-emergent adverse event) (4.9 mg) | Conjunctivitis (treatment-emergent adverse event) (7.4 mg) | Cough (treatment-emergent adverse event) (7.4 mg) | Discolored Urine (treatment-emergent adverse event) (7.4 mg) | Drowsiness (treatment-emergent adverse event) (7.4 mg) | Facial Warmth (treatment-emergent adverse event) (7.4 mg) | Feeling Drunk (treatment-emergent adverse event) (7.4 mg) | Inj. Site Reaction (treatment-emergent adverse event) (7.4 mg) | Injection Site Pain (treatment-emergent adverse event) (7.4 mg) | Lightheadedness (treatment-emergent adverse event) (7.4 mg) | Paresthesia (treatment-emergent adverse event) (7.4 mg) | Skin Tightness (treatment-emergent adverse event) (7.4 mg)
2 (50) N (%): Any Event (treatment-emergent adverse event) (3.3 mg)
3 (75) N (%): Any Event (treatment-emergent adverse event) (7.4 mg)
